Results as given in patent US9422239B1, “Dual PPAR-δ PPAR-γ agonists” (Auburn University, priority 2013, dated 2016).
“Also recorded” adds a separate entry of the source.

Tests used:
[1] = tested on: 3T3-L1 adipocytes; test: Lipid accumulation by oil red-o staining; format: cell-based; details: 6 days, oil red-o stain
Procedure: 3T3L1 adipocytes were cultured and treated with the novel compounds for a period of 6 days. Lipid accumulation was determined by oil red-o staining, and measured the absorbance spectrophotometrically at a wavelength of 510 nm and standardized to total protein concentrations. Data from lipid accumulation studies were compared to cells treated with rosiglitazone (a full PPARγ agonist).

[2] = tested on: PPARγ/δ targets; test: mRNA analyses of PPARγ/δ targets in 3T3-L1 adipocytes; format: cell-based; details: 10 μM
Excerpt: Compound 9 increased the gene expression of PPARγ targets MCAD, HSL, ATGL and adiponectin.

[3] = Accumulation in the brain after repeated dosing; format: in vivo, mice; details: 10 mg/kg, after 3 weeks
Procedure: Thus, a 10 mg/kg dose for 4 weeks can be administered.

[4] = target: T1, PPARγ (AP2-PPRE) (Homo sapiens, UniProt P37231); test: AP2-PPRE luciferase assay in HEK-293 cells; format: cell-based
T1 construct: expressed in transfected cells; host or cells: HEK-293
T1 sequence (P37231 1-505): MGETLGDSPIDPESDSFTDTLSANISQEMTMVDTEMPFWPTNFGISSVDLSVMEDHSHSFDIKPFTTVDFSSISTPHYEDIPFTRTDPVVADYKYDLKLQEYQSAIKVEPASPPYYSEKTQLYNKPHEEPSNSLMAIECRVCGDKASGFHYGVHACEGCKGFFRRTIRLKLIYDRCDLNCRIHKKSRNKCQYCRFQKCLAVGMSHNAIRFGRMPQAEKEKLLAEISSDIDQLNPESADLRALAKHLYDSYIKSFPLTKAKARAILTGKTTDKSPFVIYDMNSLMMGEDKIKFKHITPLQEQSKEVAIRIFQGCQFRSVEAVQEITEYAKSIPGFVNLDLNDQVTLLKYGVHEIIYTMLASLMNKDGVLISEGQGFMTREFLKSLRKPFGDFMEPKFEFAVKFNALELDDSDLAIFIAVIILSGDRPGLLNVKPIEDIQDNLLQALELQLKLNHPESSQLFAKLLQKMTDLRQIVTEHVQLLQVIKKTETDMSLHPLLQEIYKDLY
T1 sequence (P19793 1-462 partner): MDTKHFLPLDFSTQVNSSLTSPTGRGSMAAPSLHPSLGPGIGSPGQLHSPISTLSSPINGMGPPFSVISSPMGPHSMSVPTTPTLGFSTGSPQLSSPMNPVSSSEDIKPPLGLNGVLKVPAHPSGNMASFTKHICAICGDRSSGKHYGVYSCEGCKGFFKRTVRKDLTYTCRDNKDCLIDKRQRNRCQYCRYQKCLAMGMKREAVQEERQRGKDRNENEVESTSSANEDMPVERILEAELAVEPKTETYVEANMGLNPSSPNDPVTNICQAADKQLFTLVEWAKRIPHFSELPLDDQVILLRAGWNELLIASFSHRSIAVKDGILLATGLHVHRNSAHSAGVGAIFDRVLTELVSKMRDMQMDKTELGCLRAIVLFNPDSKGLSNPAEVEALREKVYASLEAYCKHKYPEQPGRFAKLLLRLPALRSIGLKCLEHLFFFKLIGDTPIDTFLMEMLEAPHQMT
Excerpt: (§1) To validate the specificity of the novel compounds towards activation of PPARγ/δ targets, we tested the compounds capacity to bind to select PPARγ/δ Peroxisome Proliferator Response Elements (PPRE). The PPRE are unique sites located in the promoter region where PPARs bind and transcriptionally activate the target genes. AP2-PPRE is the PPARγ target involved in adipocyte growth and differentiation. PDK4-PPRE is a PPARδ target involved in regulating energy metabolism in the cell. These PPREs were inserted into a PGL3 luciferase vectors containing CMV promoters (ADDGENE) using PCR. These vectors were co-transfected with RXR, PPARγ/PPARδ and p-galactosidase vectors into HEK-293 cells using Lipofectamine 2000 (Invitrogen). Relative light units (RLU) were measured using a Glomax Luminometer (Promega). Data were standardized to p-galactosidase activity using ONPG (Promega).

[5] = Biodistribution by LC-Mass Spectral analysis; details: mice; for concentration at 4 h: mouse, po, 3 mg/kg, 3 mg/kg (table)
[6] = Heart size (heart weight to body weight ratio); format: in vivo; details: 10 mg/kg oral daily for 1 month, wild type and db/db mice
Procedure: Diabetic db/db mice were fed a normal rodent chow diet. […] Mice were then weighed and their hearts were extracted and weighed. The heart weight of the mice compared to the body weight of the mice was then calculated based upon heart weight to body weight ratio.

[7] = tested on: db/db mice; test: Y maze behavioral test, compound 9; format: in vivo; details: oral, 1 mg/kg
Procedure: Groups of mice can be subjected to Y-maze tests and object recognition tests (ORT) to determine the improvement of working and declarative memory. Briefly the Y-maze test involves the novel arm being blocked, so mice are allowed to explore the other two arms for 15 minutes. Appropriate external and internal cues are assigned for each arm. After 15 minute training sessions, the mice are caged in the same room for 4 hours (holding session) followed by the novel arm exploration where mice are allowed to explore the novel arm for […].

[8] = target: T2, PPARδ (PDK4-PPRE) (Homo sapiens, UniProt Q03181); test: PDK4-PPRE luciferase assay in HEK-293 cells; format: cell-based
T2 construct: expressed in transfected cells; host or cells: HEK-293
T2 sequence (Q03181 1-441): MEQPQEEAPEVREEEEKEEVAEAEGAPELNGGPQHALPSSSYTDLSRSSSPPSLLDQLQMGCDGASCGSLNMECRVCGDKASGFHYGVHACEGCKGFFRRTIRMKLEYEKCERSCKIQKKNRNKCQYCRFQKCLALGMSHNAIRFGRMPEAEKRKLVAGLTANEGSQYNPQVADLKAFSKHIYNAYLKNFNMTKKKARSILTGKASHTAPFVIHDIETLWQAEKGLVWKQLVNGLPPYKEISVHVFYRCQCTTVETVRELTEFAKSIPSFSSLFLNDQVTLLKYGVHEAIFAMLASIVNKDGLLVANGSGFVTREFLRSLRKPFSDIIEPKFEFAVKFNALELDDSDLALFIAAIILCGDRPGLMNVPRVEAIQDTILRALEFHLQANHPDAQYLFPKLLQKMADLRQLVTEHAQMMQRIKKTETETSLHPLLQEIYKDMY
T2 sequence (P19793 1-462 partner): T1 sequence (P19793 1-462 partner)
Excerpt: as §1

Accumulation in the brain [3]: accumulate in the brain | Binding affinity for the AP2-PPRE ([4]; luciferase assay, HEK-293 cells, 10 μM): less binding affinity | Activation of the AP2-PPRE ([4]; transcriptional assays): minimally activates | Detection in the brain (crosses the blood brain barrier) ([5]; oral, 4 hours): detected | concentration at 4 h ([5]; adipose, Concentration): 40.4 ng/mL | concentration at 4 h ([5]; adipose, Tissue Concentration): 15.2 ng/mL | concentration at 4 h ([5]; adipose, Tissue Distribution): 3.47 ng/mL | concentration at 4 h ([5]; blood, Concentration): 144 ng/mL | concentration at 4 h ([5]; brain, Concentration): 38.7 ng/mL | concentration at 4 h ([5]; brain, Tissue Concentration): 17.2 ng/mL | concentration at 4 h ([5]; brain, Tissue Distribution): 2.96 ng/mL | concentration at 4 h ([5]; heart, Concentration): 22.1 ng/mL | concentration at 4 h ([5]; heart, Tissue Concentration): 3.19 ng/mL | concentration at 4 h ([5]; heart, Tissue Distribution): 1.35 ng/mL | concentration at 4 h ([5]; liver, Concentration): 200 ng/mL | concentration at 4 h ([5]; liver, Tissue Concentration): 24.8 ng/mL | concentration at 4 h ([5]; liver, Tissue Distribution): 11.9 ng/mL | Binding affinity for the PDK4-PPRE [8]: strong binding affinity
SMILES: Cc1ccc(CNCCCN(Cc2ccc(C(=O)O)cc2)Cc2cc(C(F)(F)F)cc(C(F)(F)F)c2)cc1 [Compound 9]
Lipid accumulation [1]: less lipid accumulation | Lipid accumulation ([1]; listed as compound 9): negligible effects | Expression of genes associated with lipid accumulation and synthesis (FATP, CD36, DGAT) [2]: marginally induced | Gene expression of PDK4 [2]: increased | Gene expression of PPARγ targets MCAD, HSL, ATGL and adiponectin [2]: increased | Heart size [6]: lacks increase in heart size; also recorded: decreased heart size | Cognition in Y maze behavioral tests [7]: improves cognition
